Structures can show the parent of a compound that is named as a salt. Active and inactive are the calls of the source.
Assays:
[1] = biological target: T1, E3 ubiquitin-protein ligase XIAP (Homo sapiens, UniProt P98170); assay: SAR analysis of Antagonists of XIAP-Bir3 domain of IAP-family anti-apoptotic proteins. [Related pubchem assays (depositor defined):AID1018, AID1449, AID1513, AID1514, AID1638]
[2] = biological target: T1, E3 ubiquitin-protein ligase XIAP; assay: SAR analysis of Antagonists of IAP-family anti-apoptotic proteins. [Related pubchem assays (depositor defined):AID1018, AID1449, AID1513, AID1514, AID1638]
[3] = biological target: T2, Tyrosine-protein phosphatase non-receptor type 7 (Homo sapiens, UniProt P35236); assay: HePTP (PTPN7) phosphatase inhibitor potency, SAR follow-up, biochemical, set 2 (AID 449736); format: functional
T2 sequence (P35236 whole entry): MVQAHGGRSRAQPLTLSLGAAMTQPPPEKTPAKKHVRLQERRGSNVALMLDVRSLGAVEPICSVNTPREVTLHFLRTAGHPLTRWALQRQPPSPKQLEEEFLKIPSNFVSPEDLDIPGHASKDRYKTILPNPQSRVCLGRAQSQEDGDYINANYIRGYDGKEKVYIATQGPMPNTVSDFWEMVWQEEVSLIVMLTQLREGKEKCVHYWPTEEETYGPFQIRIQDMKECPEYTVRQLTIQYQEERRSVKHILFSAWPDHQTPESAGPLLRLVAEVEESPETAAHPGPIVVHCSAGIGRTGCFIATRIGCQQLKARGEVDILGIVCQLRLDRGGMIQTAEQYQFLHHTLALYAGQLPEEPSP

[4] = biological target: Signal transducer and activator of transcription 3 (Homo sapiens, UniProt P40763); assay: STAT3 inhibitors, late-stage profile, late-stage follow-up, cell-based, STAT1 panel, qPCR, cytotoxicity, panel member STAT3 Inhibition (AID 2078)
[5] = biological target: Signal transducer and activator of transcription 1-alpha/beta (Homo sapiens, UniProt P42224); assay: STAT3 inhibitors, late-stage profile, late-stage follow-up, cell-based, STAT1 panel, qPCR, cytotoxicity, panel member STAT1 Inhibition (AID 2078)
[6] = biological target: Voltage-dependent T-type calcium channel subunit alpha-1H (Homo sapiens, UniProt O95180); assay: Cav3.2 T-type channel inhibitors, synthesized analogs, SAR follow-up, cell-based, synthetic library set 2, HEK293 HH8, Fluo-4 (AID 493023); format: functional
[7] = biological target: T3, Sphingosine 1-phosphate receptor 4 (Homo sapiens, UniProt O95977); assay: Late-stage fluorescence dose response cell-based assay to identify agonists of the Sphingosine 1-Phosphate Receptor 4 (S1P4): purchased compounds EC50. [Related pubchem assays (depositor defined):AID1509, AID1523, AID1563, AID1686, AID1701, AID1801]; format: functional
T3 sequence (O95977 whole entry): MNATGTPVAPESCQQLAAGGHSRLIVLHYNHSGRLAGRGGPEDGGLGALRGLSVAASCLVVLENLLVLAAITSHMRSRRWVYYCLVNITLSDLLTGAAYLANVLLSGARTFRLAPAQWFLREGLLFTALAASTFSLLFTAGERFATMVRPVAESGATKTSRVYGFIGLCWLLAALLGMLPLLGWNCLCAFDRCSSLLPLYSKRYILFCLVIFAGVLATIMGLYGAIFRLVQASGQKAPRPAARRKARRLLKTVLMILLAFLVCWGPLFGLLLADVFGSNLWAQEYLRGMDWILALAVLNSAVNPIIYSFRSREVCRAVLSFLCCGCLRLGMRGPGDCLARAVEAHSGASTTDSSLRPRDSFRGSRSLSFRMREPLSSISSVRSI

Troponin, cardiac muscle = Troponin, cardiac muscle (Homo sapiens, UniProt P19429+P45379+P63316); assay: Fluorescence-based biochemical high throughput dose response assay for activators of the calcium sensitivity of cardiac Regulated Thin Filaments (RTF). [Related pubchem assays (depositor defined):AID493008, AID493018, AID504382, AID504383]; format: protein-complex assay
[8] = biological target: Protein-arginine deiminase type-4 (Homo sapiens, UniProt Q9UM07); assay: human PAD4 inhibitor potency, dose response, biochemical, fluorescence readout (AID 492970)
[9] = biological target: T4, Replicative DNA helicase DnaB (Mycobacterium tuberculosis, UniProt P9WMR3); assay: DnaB intein splicing inhibitors, dose response, biochemical, cell-free fluorescence (AID 449749); format: functional
T4 sequence (P9WMR3 whole entry): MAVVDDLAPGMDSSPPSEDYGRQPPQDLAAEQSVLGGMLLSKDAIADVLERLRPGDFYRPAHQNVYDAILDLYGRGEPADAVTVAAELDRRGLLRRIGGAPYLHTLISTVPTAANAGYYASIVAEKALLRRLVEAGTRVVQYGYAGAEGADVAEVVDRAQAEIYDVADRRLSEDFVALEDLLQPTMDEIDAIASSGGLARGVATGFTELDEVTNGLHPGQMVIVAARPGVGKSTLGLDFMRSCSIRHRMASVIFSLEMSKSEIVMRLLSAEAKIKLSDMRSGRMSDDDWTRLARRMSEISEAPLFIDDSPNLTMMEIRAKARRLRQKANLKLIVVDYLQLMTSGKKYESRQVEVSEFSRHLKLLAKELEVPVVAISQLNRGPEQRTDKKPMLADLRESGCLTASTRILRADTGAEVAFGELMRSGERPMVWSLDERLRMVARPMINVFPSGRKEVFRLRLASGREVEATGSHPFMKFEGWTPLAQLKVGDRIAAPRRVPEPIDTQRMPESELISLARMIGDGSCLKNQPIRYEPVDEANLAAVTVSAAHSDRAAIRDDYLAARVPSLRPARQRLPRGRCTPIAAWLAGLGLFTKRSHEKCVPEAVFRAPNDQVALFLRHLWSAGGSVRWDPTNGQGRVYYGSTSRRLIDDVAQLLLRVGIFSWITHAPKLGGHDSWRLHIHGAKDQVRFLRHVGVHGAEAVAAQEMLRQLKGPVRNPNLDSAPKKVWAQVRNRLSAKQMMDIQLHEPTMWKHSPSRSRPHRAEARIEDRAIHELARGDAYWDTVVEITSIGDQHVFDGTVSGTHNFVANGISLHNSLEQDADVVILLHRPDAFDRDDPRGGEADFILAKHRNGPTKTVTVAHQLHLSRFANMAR

Protein RecA = biological target: T5, Protein RecA (Mycobacterium tuberculosis, UniProt P9WHJ3); assay: Fluorescence Cell-Free Homogeneous Dose Retest to Identify Inhibitors of RecA-Intein Splicing Activity. [Related pubchem assays (depositor defined):AID2097, AID2223, AID489010, AID492950]; format: functional
T5 sequence (P9WHJ3 whole entry): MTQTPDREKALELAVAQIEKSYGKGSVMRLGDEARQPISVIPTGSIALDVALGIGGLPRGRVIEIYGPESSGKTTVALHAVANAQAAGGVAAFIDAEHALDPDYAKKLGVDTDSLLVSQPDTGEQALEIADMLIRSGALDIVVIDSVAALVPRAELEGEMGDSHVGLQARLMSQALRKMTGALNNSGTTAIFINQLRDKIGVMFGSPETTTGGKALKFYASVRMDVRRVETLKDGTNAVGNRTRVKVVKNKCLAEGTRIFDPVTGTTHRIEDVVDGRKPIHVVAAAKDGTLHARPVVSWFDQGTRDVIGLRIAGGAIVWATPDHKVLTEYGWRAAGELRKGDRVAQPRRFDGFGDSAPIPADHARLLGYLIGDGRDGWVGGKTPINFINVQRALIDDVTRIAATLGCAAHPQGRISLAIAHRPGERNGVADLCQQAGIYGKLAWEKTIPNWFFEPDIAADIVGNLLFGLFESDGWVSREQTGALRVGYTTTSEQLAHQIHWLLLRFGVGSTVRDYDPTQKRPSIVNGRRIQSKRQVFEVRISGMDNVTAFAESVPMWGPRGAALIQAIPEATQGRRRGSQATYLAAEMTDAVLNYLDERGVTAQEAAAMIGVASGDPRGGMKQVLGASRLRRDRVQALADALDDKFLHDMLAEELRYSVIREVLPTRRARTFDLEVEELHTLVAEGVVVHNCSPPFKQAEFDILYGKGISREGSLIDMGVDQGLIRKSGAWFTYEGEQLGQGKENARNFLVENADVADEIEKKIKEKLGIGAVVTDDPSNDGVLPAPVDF

[10] = Shn3 3'UTR reporter inhibitors, dose response, cell-based, Clone20 osteoblasts, firefly luciferase, cherry-picked (AID 624132); format: functional;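 further: firefly luciferase luminescence from reporter carrying the Shn3 3'UTR in osteoblasts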
[11] = HepG2 cell cytotoxicity, dose response, cytotoxicity control for Shn3 inhibitor project, CellTiter-Glo, cherry-picked (AID 624134); format: functional, cell-based
[12] = control 3'UTR Renilla luciferase suppression, dose response, counter-screen for Shn3 inhibitor project, cell-based, Clone20-Shn3RL, cherry-picked (AID 624133); format: functional
Caspase-6 = biological target: T6, Caspase-6 (Homo sapiens, UniProt P55212); assay: human caspase-6 inhibitors, dose response, biochemical, VEID-R110 fluorescence, cherry-pick (AID 720632)
T6 sequence (P55212 whole entry): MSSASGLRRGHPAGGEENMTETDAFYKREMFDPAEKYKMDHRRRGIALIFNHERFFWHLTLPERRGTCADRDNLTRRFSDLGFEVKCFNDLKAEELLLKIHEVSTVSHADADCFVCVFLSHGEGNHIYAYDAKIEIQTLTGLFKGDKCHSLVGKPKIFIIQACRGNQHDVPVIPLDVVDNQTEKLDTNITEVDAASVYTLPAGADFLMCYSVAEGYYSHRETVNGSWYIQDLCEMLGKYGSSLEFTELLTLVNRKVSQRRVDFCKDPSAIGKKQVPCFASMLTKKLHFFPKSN

[13] = HeLa 2N DNA content increase, dose response, cell-based, IC50 (AID 1117349); format: functional
[14] = HeLa 4N DNA content increase, dose response, cell-based, IC50 (AID 1117351); format: functional

In the case of `CN[C@@H](C)C(=O)NC1CCCN(CC(=O)NC2CCc3ccccc3C2)C1=O` (some centres not stated), the IC50 [1] is reported as > 100 µM (inactive) and the IC50 [2] is reported as > 100 µM (inactive).

For `Cc1ccc(-n2c(N)c(C(=O)N3CCN(c4ccccc4F)CC3)sc2=S)cc1`, the IC50 [3] was > 100 µM (inactive).

For `c1ccc(CC2CCN(c3ncnc4sc5c(c34)CCC5)CC2)cc1`, the IC50 [4] was 20 µM (inactive) and the IC50 [5] was > 55.7 µM (inactive).

With `CC(C)(C)CCN1CCC[C@H](NC(=O)c2ccc(Cl)cc2Cl)C1` the EC50 [6] was 10 µM (active).

In the case of `Cc1ccc(Oc2ncc(Cl)cc2Cl)c([N+](=O)[O-])n1`, the EC50 [7] is reported as > 50 µM (inactive).

With `COc1ccc(/C=N/NC(=O)c2cccnc2)cc1CN1CCOCC1` the EC50 (Troponin, cardiac muscle) was > 71.5 µM (inactive).

For `COc1ccc(Cc2nccc3cc(OC)c(OC)cc23)cc1OC` [PAPAVERINE HYDROCHLORIDE], the IC50 [8] was 39 µM (inactive), the AC50 [9] was 5.66 µM (active) and the EC50 (Protein RecA) was 3.01 µM (active). The AC50 [10] was 2.48 µM (active), the AC50 [11] was 8.06 µM (active) and the AC50 [12] was 20.8 µM (active). The AC50 (Caspase-6) was 22 µM (active), the IC50 [13] was > 10 µM (inactive) and the IC50 [14] was > 10 µM (inactive).

Source: ChEMBL document CHEMBL1201862, “PubChem BioAssay data set” (2004)
